ChEMBL document CHEMBL4033607, “Structurally Diverse Alkaloids from the Seeds of Peganum harmala” (J Nat Prod, 2017)

tested on: SGC-7901; assay: Antiproliferative activity against human SGC7901 cells by MTT assay; assay type: functional, cell-based

Compound | IC50 [µM]
COC(=O)N1c2cc(OC)ccc2[C@]2(O)CCN[C@]12C | > 10
COc1ccc2c(c1)[nH]c1c(C(C)=O)nccc12 [ARENARINE C] | > 10
COc1ccc2c(c1)[nH]c1c(C)[n+]([O-])ccc12 | > 10
COc1ccc2c3c([nH]c2c1)C(C)=[N+]([O-])CC3 | > 10
COc1cc(Cc2cncs2)cc(OC)c1O | > 10
COC(=O)N1CC[C@@]2(O)c3ccc(OC)cc3N(C(=O)OC)[C@@]12C | > 10
COc1ccc2c3c([nH]c2c1)-c1nc2ccccc2c(=O)n1CC3 | > 10
COC(=O)N1CC[C@]2(O)c3ccc(OC)cc3N(C(=O)OC)[C@]12C | > 10
Cc1nccc2c1[nH]c1ccccc12 [HARMAN] | > 10
COc1ccc2c3c([nH]c2c1)-c1cc(CO)cc(=O)n1CC3 | > 10
COc1ccc2c3c([nH]c2c1)C(=O)NCC3 | > 10
COc1ccc2c3c([nH]c2c1)C(c1cnc2ccccc2c1)=NCC3 | > 10
COc1ccc2c3ccnc4cc(C)c(=O)n(c2c1)c43 | > 10
COc1cc(Cc2cnc(C)s2)cc(OC)c1O | > 10
COC(=O)c1nccc2c1[nH]c1cc(OC)ccc12 [HARMIC ACID METHYL ESTER] | > 10
COc1ccc2c(c1)[nH]c1c(C(N)=O)nccc12 | > 10
COc1ccc2c3c([nH]c2c1)C(C)=NCC3 [HARMALINE] | > 10
COC(=O)N1c2cc(OC)ccc2[C@@]2(O)CCN[C@@]12C | > 10
COC(=O)/C=C1/c2[nH]c3cc(OC)ccc3c2CCN1C(C)=O | > 10

tested on: PC-3; assay: Antiproliferative activity against human PC3 cells by MTT assay; assay type: functional, cell-based

Compound | IC50 [µM]
COC(=O)N1c2cc(OC)ccc2[C@]2(O)CCN[C@]12C | > 10
COc1ccc2c(c1)[nH]c1c(C(C)=O)nccc12 [ARENARINE C] | > 10
COc1ccc2c(c1)[nH]c1c(C)[n+]([O-])ccc12 | > 10
COc1ccc2c3c([nH]c2c1)C(C)=[N+]([O-])CC3 | > 10
COc1cc(Cc2cncs2)cc(OC)c1O | > 10
COC(=O)N1CC[C@@]2(O)c3ccc(OC)cc3N(C(=O)OC)[C@@]12C | > 10
COc1ccc2c3c([nH]c2c1)-c1nc2ccccc2c(=O)n1CC3 | > 10
COC(=O)N1CC[C@]2(O)c3ccc(OC)cc3N(C(=O)OC)[C@]12C | > 10
Cc1nccc2c1[nH]c1ccccc12 [HARMAN] | > 10
COc1ccc2c3c([nH]c2c1)-c1cc(CO)cc(=O)n1CC3 | > 10
COc1ccc2c3c([nH]c2c1)C(=O)NCC3 | > 10
COc1ccc2c3c([nH]c2c1)C(c1cnc2ccccc2c1)=NCC3 | > 10
COc1ccc2c3ccnc4cc(C)c(=O)n(c2c1)c43 | > 10
COc1cc(Cc2cnc(C)s2)cc(OC)c1O | > 10
COC(=O)c1nccc2c1[nH]c1cc(OC)ccc12 [HARMIC ACID METHYL ESTER] | > 10
COc1ccc2c(c1)[nH]c1c(C(N)=O)nccc12 | > 10
COc1ccc2c3c([nH]c2c1)C(C)=NCC3 [HARMALINE] | > 10
COC(=O)N1c2cc(OC)ccc2[C@@]2(O)CCN[C@@]12C | > 10
COC(=O)/C=C1/c2[nH]c3cc(OC)ccc3c2CCN1C(C)=O | > 10

tested on: HL-60; assay: Antiproliferative activity against human HL60 cells by tryphan blue assay; assay type: functional, cell-based

Compound | IC50 [µM]
COC(=O)N1c2cc(OC)ccc2[C@]2(O)CCN[C@]12C | > 10
COc1ccc2c(c1)[nH]c1c(C(C)=O)nccc12 [ARENARINE C] | > 10
COc1ccc2c(c1)[nH]c1c(C)[n+]([O-])ccc12 | > 10
COc1ccc2c3c([nH]c2c1)C(C)=[N+]([O-])CC3 | > 10
COc1cc(Cc2cncs2)cc(OC)c1O | > 10
CCc1nccc2c1[nH]c1cc(OC)ccc12 | 9.05
COC(=O)N1CC[C@@]2(O)c3ccc(OC)cc3N(C(=O)OC)[C@@]12C | > 10
COc1ccc2c3c([nH]c2c1)-c1nc2ccccc2c(=O)n1CC3 | > 10
COC(=O)N1CC[C@]2(O)c3ccc(OC)cc3N(C(=O)OC)[C@]12C | > 10
Cc1nccc2c1[nH]c1ccccc12 [HARMAN] | > 10
COc1ccc2c3c([nH]c2c1)-c1cc(CO)cc(=O)n1CC3 | > 10
COc1ccc2c3c([nH]c2c1)C(=O)NCC3 | > 10
COc1ccc2c3c([nH]c2c1)C(c1cnc2ccccc2c1)=NCC3 | > 10
COc1ccc2c3ccnc4cc(C)c(=O)n(c2c1)c43 | > 10
COc1cc(Cc2cnc(C)s2)cc(OC)c1O | > 10
COc1ccc2c3c([nH]c2c1)-c1cccc(=O)n1CC3 | 9.25
COC(=O)c1nccc2c1[nH]c1cc(OC)ccc12 [HARMIC ACID METHYL ESTER] | > 10
COc1ccc2c(c1)[nH]c1c(CO)nccc12 | 4.36
COc1ccc2c(c1)[nH]c1c(C(N)=O)nccc12 | > 10
COc1ccc2c3c([nH]c2c1)C(C)=NCC3 [HARMALINE] | > 10
COC(=O)N1c2cc(OC)ccc2[C@@]2(O)CCN[C@@]12C | > 10
COC(=O)/C=C1/c2[nH]c3cc(OC)ccc3c2CCN1C(C)=O | > 10
